Experimental data published in US20140194480A1, “METHODS FOR THE CONTROL OF TERMITES AND ANTS” (SYNGENTA PARTICIPATIONS AG, priority 2011, published 2014).

Columns and labels:
termites [1] = experiment: Transfer test: termites exposed 6 h on treated sand, then combined with unexposed termites; total termite mortality; type: in vivo; settings: for % mortality: Table 3; for % mortality of the total termites: Table 4
Description: Washed sand is treated with the experimental compound in a volatile solvent, so as to deliver the desired concentration w/w in the solvent free sand. Once the solvent has evaporated, the sand is thoroughly mixed and made up with deionised water to 3% w/w moisture content. Ca. 5 g of the so treated sand is placed in the base of a 9 cm Petri dish. 20 worker termites are placed on the treated sand and placed in a dark room under similar temperature to their culture colony. After 6 hours the termites are assessed for mortality and carefully removed from the treated sand, before being placed in a similar Petri dish of untreated sand (3% moisture content). 20 further termites are taken from the same colony and placed in the Petri dish with the exposed termites, along with a section of filter paper ca. 2 cm^2. The lid of the Petri dish is replaced and sealed with laboratory film. The so constructed Petri dish arena are placed in a dark room with a similar temperature to the culture colony. Assessments of total termite mortality, symptomology and behaviour are made at daily intervals.

termites [2] = experiment: Treated sand column test: termite mortality and distance tunnelled into treated sand; type: in vivo
Description: Washed sand was treated with the experimental compound diluted in acetone. The acetone was allowed to evaporate, and the sand thoroughly mixed. De-ionised water was added to the treated sand to give a final water content of 3%. The treated sand was then packed into a glass tube with an internal diameter of 13.2 mm, to produce a 4 cm column. This was held in place at one end with a section of 7% agar. Sections of filter paper were placed at both ends of the column. Approximately 25 mixed age termites were added to the end of the tube containing the agar. Both ends were then sealed with rubber bungs. Assessments were made 1, 2, 3, 7 and 21 days after infestation, measuring termite mortality and the distance tunnelled into the treated sand.

[3] = 2.5 ppm, 0 days after treatment
[4] = 2.5 ppm, 2 days after treatment
[5] = 2.5 ppm, 3 days after treatment
[6] = 2.5 ppm, 6 days after treatment
[7] = 2.5 ppm, 7 days after treatment
[8] = 2.5 ppm, 8 days after treatment
[9] = 2.5 ppm, 9 days after treatment
[10] = 2.5 ppm, 14 days after treatment
[11] = 1.25 ppm, 0 days after treatment
[12] = 1.25 ppm, 1 day after treatment
[13] = 1.25 ppm, 2 days after treatment
[14] = 1.25 ppm, 3 days after treatment
[15] = 1.25 ppm, 6 days after treatment
[16] = 1.25 ppm, 7 days after treatment
[17] = 1.25 ppm, 8 days after treatment
[18] = 1.25 ppm, 9 days after treatment
[19] = 1.25 ppm, 14 days after treatment

Cc1cc(C2=NOC(c3cc(Cl)cc(Cl)c3)(C(F)(F)F)C2)ccc1C(=O)NC1(C)CSC1 (racemic) [Compound 1]
% mortality (termites [1]; 10 ppm, 2 days after application): 0% | % mortality (termites [1]; 10 ppm, 3 days after application): 14% | % mortality (termites [1]; 10 ppm, 6 days after application): 30% | % mortality (termites [1]; 10 ppm, 7 days after application): 38% | % mortality (termites [1]; 10 ppm, 8 days after application): 43% | % mortality (termites [1]; 10 ppm, 9 days after application): 50% | % mortality (termites [1]; 10 ppm, 10 days after application): 67% | % mortality (termites [1]; 10 ppm, 13 days after application): 78% | % mortality (termites [1]; 10 ppm, 14 days after application): 83% | % mortality (termites [1]; 10 ppm, 15 days after application): 87% | % mortality (termites [1]; 10 ppm, 16 days after application): 88% | % mortality (termites [1]; 10 ppm, 17 days after application): 92% | % mortality of the total termites (termites [1]; [3]): 0% | % mortality of the total termites (termites [1]; 2.5 ppm, 1 day after treatment): 0% | % mortality of the total termites (termites [1]; [4]): 0.5% | % mortality of the total termites (termites [1]; [5]): 0.5% | % mortality of the total termites (termites [1]; [6]): 0.5% | % mortality of the total termites (termites [1]; [7]): 1% | % mortality of the total termites (termites [1]; [8]): 1% | % mortality of the total termites (termites [1]; [9]): 1.5% | % mortality of the total termites (termites [1]; [10]): 1.5% | % mortality of the total termites (termites [1]; 5 ppm, 0 days after treatment): 0% | % mortality of the total termites (termites [1]; 5 ppm, 1 day after treatment): 0.5% | % mortality of the total termites (termites [1]; 5 ppm, 2 days after treatment): 1.5% | % mortality of the total termites (termites [1]; 5 ppm, 3 days after treatment): 1.5% | % mortality of the total termites (termites [1]; 5 ppm, 6 days after treatment): 1.5% | % mortality of the total termites (termites [1]; 5 ppm, 7 days after treatment): 6% | % mortality of the total termites (termites [1]; 5 ppm, 8 days after treatment): 6% | % mortality of the total termites (termites [1]; 5 ppm, 9 days after treatment): 7% | % mortality of the total termites (termites [1]; 5 ppm, 14 days after treatment): 7.5% | % mortality of the total termites (termites [1]; 10 ppm, 0 days after treatment): 0% | % mortality of the total termites (termites [1]; 10 ppm, 1 day after treatment): 19.5% | % mortality of the total termites (termites [1]; 10 ppm, 2 days after treatment): 23.5% | % mortality of the total termites (termites [1]; 10 ppm, 3 days after treatment): 27.5% | % mortality of the total termites (termites [1]; 10 ppm, 6 days after treatment): 32.5% | % mortality of the total termites (termites [1]; 10 ppm, 7 days after treatment): 33.5% | % mortality of the total termites (termites [1]; 10 ppm, 8 days after treatment): 35% | % mortality of the total termites (termites [1]; 10 ppm, 9 days after treatment): 35.5% | % mortality of the total termites (termites [1]; 10 ppm, 14 days after treatment): 37.5%

Cc1cc(C2=NCC(c3cc(Cl)cc(Cl)c3)(C(F)(F)F)C2)ccc1C(=O)NC1(C)CSC1 (racemic) [Compound 1b]
% mortality of the total termites (termites [1]; [11]): 0% | % mortality of the total termites (termites [1]; [12]): 1.5% | % mortality of the total termites (termites [1]; [13]): 3.5% | % mortality of the total termites (termites [1]; [14]): 5.5% | % mortality of the total termites (termites [1]; [15]): 6% | % mortality of the total termites (termites [1]; [16]): 6% | % mortality of the total termites (termites [1]; [17]): 6% | % mortality of the total termites (termites [1]; [18]): 6.5% | % mortality of the total termites (termites [1]; [19]): 6.5% | % mortality of the total termites (termites [1]; [3]): 0% | % mortality of the total termites (termites [1]; 2.5 ppm, 1 day after treatment): 10% | % mortality of the total termites (termites [1]; [4]): 19% | % mortality of the total termites (termites [1]; [5]): 22.5% | % mortality of the total termites (termites [1]; [6]): 27% | % mortality of the total termites (termites [1]; [7]): 36% | % mortality of the total termites (termites [1]; [8]): 36.5% | % mortality of the total termites (termites [1]; [9]): 37% | % mortality of the total termites (termites [1]; [10]): 38% | % mortality of the total termites (termites [1]; 5 ppm, 0 days after treatment): 0% | % mortality of the total termites (termites [1]; 5 ppm, 1 day after treatment): 15% | % mortality of the total termites (termites [1]; 5 ppm, 2 days after treatment): 33.5% | % mortality of the total termites (termites [1]; 5 ppm, 3 days after treatment): 40.5% | % mortality of the total termites (termites [1]; 5 ppm, 6 days after treatment): 52.5% | % mortality of the total termites (termites [1]; 5 ppm, 7 days after treatment): 59.5% | % mortality of the total termites (termites [1]; 5 ppm, 8 days after treatment): 60% | % mortality of the total termites (termites [1]; 5 ppm, 9 days after treatment): 61.5% | % mortality of the total termites (termites [1]; 5 ppm, 14 days after treatment): 63.5%

Cc1cc(C2=NOC(c3cc(Cl)cc(Cl)c3)(C(F)(F)F)C2)ccc1C(=O)NC1CSC1 (racemic) [Compound 5]
% mortality of the total termites (termites [1]; [11]): 0% | % mortality of the total termites (termites [1]; [12]): 3% | % mortality of the total termites (termites [1]; [13]): 12% | % mortality of the total termites (termites [1]; [14]): 12% | % mortality of the total termites (termites [1]; [15]): 20% | % mortality of the total termites (termites [1]; [16]): 24% | % mortality of the total termites (termites [1]; [17]): 25% | % mortality of the total termites (termites [1]; [18]): 26.5% | % mortality of the total termites (termites [1]; [19]): 30% | % mortality of the total termites (termites [1]; [3]): 0% | % mortality of the total termites (termites [1]; 2.5 ppm, 1 day after treatment): 15% | % mortality of the total termites (termites [1]; [4]): 31% | % mortality of the total termites (termites [1]; [5]): 32% | % mortality of the total termites (termites [1]; [6]): 42% | % mortality of the total termites (termites [1]; [7]): 46.5% | % mortality of the total termites (termites [1]; [8]): 46.5% | % mortality of the total termites (termites [1]; [9]): 49.5% | % mortality of the total termites (termites [1]; [10]): 56% | % mortality of the total termites (termites [1]; 5 ppm, 0 days after treatment): 0% | % mortality of the total termites (termites [1]; 5 ppm, 1 day after treatment): 20.5% | % mortality of the total termites (termites [1]; 5 ppm, 2 days after treatment): 42% | % mortality of the total termites (termites [1]; 5 ppm, 3 days after treatment): 44% | % mortality of the total termites (termites [1]; 5 ppm, 6 days after treatment): 52.5% | % mortality of the total termites (termites [1]; 5 ppm, 7 days after treatment): 54.5% | % mortality of the total termites (termites [1]; 5 ppm, 8 days after treatment): 56.5% | % mortality of the total termites (termites [1]; 5 ppm, 9 days after treatment): 56.5% | % mortality of the total termites (termites [1]; 5 ppm, 14 days after treatment): 65.5%

N#Cc1nn(-c2c(Cl)cc(C(F)(F)F)cc2Cl)c(N)c1[S+]([O-])C(F)(F)F (stereo not drawn) [Fipronil]
Mortality/average % (termites [2]; Table 1, 0.01 ppm in sand, 1 DAA): 7% | Mortality/average % (termites [2]; Table 1, 0.01 ppm in sand, 2 DAA): 7% | Mortality/average % (termites [2]; Table 1, 0.01 ppm in sand, 3 DAA): 7% | Mortality/average % (termites [2]; Table 1, 0.01 ppm in sand, 7 DAA): 7% | Mortality/average % (termites [2]; Table 1, 0.01 ppm in sand, 21 DAA): 52% | Mortality/average % (termites [2]; Table 1, 0.1 ppm in sand, 1 DAA): 0% | Mortality/average % (termites [2]; Table 1, 0.1 ppm in sand, 2 DAA): 28% | Mortality/average % (termites [2]; Table 1, 0.1 ppm in sand, 3 DAA): 33% | Mortality/average % (termites [2]; Table 1, 0.1 ppm in sand, 7 DAA): 77% | Mortality/average % (termites [2]; Table 1, 0.1 ppm in sand, 21 DAA): 100% | Mortality/average % (termites [2]; Table 2, 0.01 ppm in sand, 1 DAA): 27% | Mortality/average % (termites [2]; Table 2, 0.01 ppm in sand, 2 DAA): 40% | Mortality/average % (termites [2]; Table 2, 0.01 ppm in sand, 3 DAA): 40% | Mortality/average % (termites [2]; Table 2, 0.01 ppm in sand, 7 DAA): 40% | Mortality/average % (termites [2]; Table 2, 0.01 ppm in sand, 21 DAA): 40% | Mortality/average % (termites [2]; Table 2, 0.1 ppm in sand, 1 DAA): 27% | Mortality/average % (termites [2]; Table 2, 0.1 ppm in sand, 2 DAA): 30% | Mortality/average % (termites [2]; Table 2, 0.1 ppm in sand, 3 DAA): 40% | Mortality/average % (termites [2]; Table 2, 0.1 ppm in sand, 7 DAA): 40% | Mortality/average % (termites [2]; Table 2, 0.1 ppm in sand, 21 DAA): 40% | repellency (in words) (termites [2]; fipronil rates tested (0.1 and 0.01 ppm)): not repellent
